Data as given in US7399769B2, “Aryl-isoxazol-4-yl-imidazo[1,5-a]pyridine derivatives” (Hoffmann-La Roche Inc., priority 2005, dated 2008).

Molecular target: T1, human GABA A receptor α5β3γ2 (hα5) (Homo sapiens, UniProt P18507+P31644)
T1 construct: expressed in transfected cells; host or cells: HEK293 (transient transfection); membranes prepared from cell pellets
Experiment: [3H]flumazenil competition binding, human GABA A α5β3γ2 receptors in HEK293 cells
Settings: displacement of [3H]flumazenil 0.5 nM; HEK293 cells transiently transfected with human receptors; mean of two determinations
Procedure: Membrane Preparation and Binding Assay
The affinity of compounds at GABA A receptor subtypes was measured by competition for [3H]flumazenil (85 Ci/mmol; Roche) binding to HEK293 cells expressing rat (stably transfected) or human (transiently transfected) receptors of composition α1β3γ2, α2β3γ2, α3β3γ2 and α5β3γ2.
Cell pellets were suspended in Krebs-tris buffer (4.8 mM KCl, 1.2 mM CaCl2, 1.2 mM MgCl2, 120 mM NaCl, 15 mM Tris; pH 7.5; binding assay buffer), homogenized by polytron for ca. 20 sec on ice and centrifuged for 60 min at 4° C. (50000 g; Sorvall, rotor: SM24=20000 rpm). The cell pellets were resuspended in Krebs-tris buffer and homogenized by polytron for ca. 15 sec on ice. Protein was measured (Bradford method, Bio-Rad) and aliquots of 1 mL were prepared and stored at −80° C.
Radioligand binding assays were carried out in a volume of […] (96-well plates) which contained […] of cell membranes, [3H]flumazenil at a concentration of 1 nM for α1, α2, α3 subunits and 0.5 nM for α5 subunits and the test compound in the range of […]. Nonspecific binding was defined by 10^−5 M diazepam and typically represented less than 5% of the total binding. […] After drying, filter-retained radioactivity was detected by liquid scintillation counting. Ki values were calculated using Excel-Fit (Microsoft) and are the means of two determinations. […]

Ki: 77.9 nM
Compound: Cc1onc(-c2ccccc2)c1-c1ncc2ccccn12 [Example 1, 3-(5-Methyl-3-phenyl-isoxazol-4-yl)-imidazo[1,5-a]pyridine]
